Here are results for 14 compounds from patent publication US10071962B2, “Androgen receptor modulators and methods for their use” (British Columbia Cancer Agency Branch, priority 2014, dated 2018).

For this experiment, the target named is T1, androgen receptor (AR) (Homo sapiens, UniProt P10275, T878A).
T1 construct: they express endogenous androgen receptor (AR) and secrete prostate-specific antigen (PSA); endogenous in cells; host or cells: LNCaP
T1 sequence (P10275 1-920 T878A): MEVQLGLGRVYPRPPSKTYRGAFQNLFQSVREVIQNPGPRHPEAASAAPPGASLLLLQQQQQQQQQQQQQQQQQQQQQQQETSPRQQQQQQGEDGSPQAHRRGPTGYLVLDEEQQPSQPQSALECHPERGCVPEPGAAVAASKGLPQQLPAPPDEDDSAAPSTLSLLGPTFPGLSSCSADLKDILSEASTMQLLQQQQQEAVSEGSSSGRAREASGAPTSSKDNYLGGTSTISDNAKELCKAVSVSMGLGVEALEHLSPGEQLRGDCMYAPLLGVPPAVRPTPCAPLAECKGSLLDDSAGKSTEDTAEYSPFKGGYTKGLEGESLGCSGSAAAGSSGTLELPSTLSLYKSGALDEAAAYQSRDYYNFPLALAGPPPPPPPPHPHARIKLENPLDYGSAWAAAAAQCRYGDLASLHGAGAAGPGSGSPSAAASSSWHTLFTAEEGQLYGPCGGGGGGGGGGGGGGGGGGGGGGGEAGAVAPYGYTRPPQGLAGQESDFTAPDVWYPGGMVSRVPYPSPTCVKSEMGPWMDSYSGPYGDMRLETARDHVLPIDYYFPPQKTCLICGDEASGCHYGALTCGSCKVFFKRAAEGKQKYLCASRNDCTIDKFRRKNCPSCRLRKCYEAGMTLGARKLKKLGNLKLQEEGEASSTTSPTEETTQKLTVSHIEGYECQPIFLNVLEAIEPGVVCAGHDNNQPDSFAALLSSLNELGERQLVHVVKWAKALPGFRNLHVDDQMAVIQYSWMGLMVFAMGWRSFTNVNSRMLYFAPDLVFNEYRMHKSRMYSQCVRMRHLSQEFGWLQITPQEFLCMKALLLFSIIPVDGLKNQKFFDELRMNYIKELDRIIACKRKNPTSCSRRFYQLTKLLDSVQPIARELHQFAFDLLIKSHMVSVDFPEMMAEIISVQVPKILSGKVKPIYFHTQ
Put plainly: PSA (6.1 kb)-luciferase reporter assay in LNCaP cells, R1881-induced AR transcriptional activity. In kind it is cell-based. The conditions noted are these: LNCaP cells transfected with PSA (6.1 kb)-luciferase; 1 h pre-treatment, R1881 1 nM, 48 h; various concentrations. As for the experimental part:
R1881 (a synthetic androgen) is employed since it is stable and avoids problems associated with the labile physiological ligand dihydrotestosterone (DHT).
LNCaP (2.4×10^4 cell/well) cells were seeded on 24-well plates overnight before transfection with PSA (6.1 kb)-luciferase plasmid (0.25 ug/well) in serum-free, red phenol-free media. The next day, cells were pre-treated with compounds of the invention for 1 hour before the addition of synthetic androgen, R1881 (1 nM) to transactivate androgen receptor (AR). After 48 h of incubation with R1881, the cells were harvested, and relative luciferase activity was determined as a read-out for androgen receptor (AR) transcriptional activity relative to a control. Test compounds were added to the cells at various concentrations and activity for each treatment was normalized to the predicted maximal activity induction (in the absence of test compounds, vehicle only). Transfection experiments were performed using triplicate wells.
Take `CCC(=O)N[C@H](CC(C)C)C(=O)N1C(=O)C=C(OC)[C@@H]1CCC(Cl)(Cl)Cl` [Compound 1-8c]: the “luciferase activity relative to the control (read-out for AR transcriptional activity)” value is listed as “decrease in luciferase activity relative to the control”.
Then `COC1=CC(=O)N(C(=O)[C@H](N)CCC(Cl)(Cl)Cl)[C@@H]1CCC(Cl)(Cl)Cl` [Compound 1-4d], with “decrease in luciferase activity relative to the control”; and `CCC(=O)N[C@H](CCC(Cl)(Cl)Cl)C(=O)N1C(=O)C=C(OC)[C@H]1CCC(Cl)(Cl)Cl` [Compound 1-1d], with “decrease in luciferase activity relative to the control”; and `C#CCCC(=O)N[C@H](CCC(Cl)(Cl)Cl)C(=O)N1C(=O)C=C(OC)[C@@H]1CC(C)C` [Compound 1-9c], with “decrease in luciferase activity relative to the control”.
Next, `COC1=CC(=O)N(C(=O)[C@H](N)CCC(Cl)(Cl)Cl)[C@H]1CCC(Cl)(Cl)Cl` [Compound 1-4c]: “decrease in luciferase activity relative to the control”; `CCC(=O)N[C@H](CCC(Cl)(Cl)Cl)C(=O)N1C(=O)C=C(OC)[C@@H]1CCC(Cl)(Cl)Cl` [Compound 1-1c]: “decrease in luciferase activity relative to the control”; `CCC(=O)N[C@H](CCC(Cl)(Cl)Cl)C(=O)N1C(=O)C=C(OC)[C@@H]1CC(C)C` [Compound 1-7c]: “decrease in luciferase activity relative to the control”.
`C#CCCC(=O)N[C@H](CCC(Cl)(Cl)Cl)C(=O)N1C(=O)C=C(OC)[C@@H]1CCC(Cl)(Cl)Cl` [Compound 1-2c]: the “luciferase activity relative to the control (read-out for AR transcriptional activity)” value is on record as “decrease in luciferase activity relative to the control”.
Turning to `CCC(=O)N[C@H](CC(C)C)C(=O)N1C(=O)C=C(OC)[C@H]1CCC(Cl)(Cl)Cl` [Compound 1-8d], the “luciferase activity relative to the control (read-out for AR transcriptional activity)” value is “slight increase in luciferase activity relative to the control”.
Then `C#CCCC(=O)N[C@H](CCC(Cl)(Cl)Cl)C(=O)N1C(=O)C=C(OC)[C@H]1CCC(Cl)(Cl)Cl` [Compound 1-2d], with “decrease in luciferase activity relative to the control”.
As to `CCC(=O)N[C@@H](CCC(Cl)(Cl)Cl)C(=O)N1C(=O)C=C(OC)[C@H]1CCC(Cl)(Cl)Cl` [Compound 1-1b], the “luciferase activity relative to the control (read-out for AR transcriptional activity)” value is listed as “decrease in luciferase activity relative to the control”.
For `CCS(=O)(=O)N[C@H](CCC(Cl)(Cl)Cl)C(=O)N1C(=O)C=C(OC)[C@H]1CCC(Cl)(Cl)Cl` [Compound 1-6d], the “luciferase activity relative to the control (read-out for AR transcriptional activity)” value is “decrease in luciferase activity relative to the control”.
For `CCC(=O)N[C@@H](CCC(Cl)(Cl)Cl)C(=O)N1C(=O)C=C(OC)[C@@H]1CCC(Cl)(Cl)Cl` [Compound 1-1a], the “luciferase activity relative to the control (read-out for AR transcriptional activity)” value is “decrease in luciferase activity relative to the control”.
On to `CCC(=O)N[C@H](CCC(Cl)(Cl)Cl)C(=O)N1C(=O)C=C(OC)[C@H]1CC(C)C` [Compound 1-7d], for which the “luciferase activity relative to the control (read-out for AR transcriptional activity)” value is on record as “decrease in luciferase activity relative to the control”.
